Data published in patent US11731969B2, “Crystal polymorph of 8-bromo-2-(1-methylpiperidin-4-ylamino)-4-(4-phenoxyphenylamino)pyrido[4,3-d]pyrimidin-5(6H)-one hydrochloride and method for preparing same” (OSCOTEC INC., priority 2018, dated 2023).
Where a name gives a salt, the structure may show the parent alone.

Key:
[1] = Evaluation of hygroscopicity by dynamic moisture adsorption analyzer (DVS); format: physicochemical; conditions: for Hygroscopicity (%): 25° C., DVS, hydrochloride
Experimental: 8-bromo-2-(1-methylpiperidin-4-ylamino)-4-(4-phenoxyphenylamino)pyrido[4,3-d]pyrimidin-5(6H)-one hydrochloride (Compound 1) represented by the above Formula 1 and the crystalline form (VI) obtained in the Examples were measured for hygroscopicity in a relative humidity range of 0% to 90% at 25° C. using a dynamic moisture adsorption analyzer (DVS).

[2] = Evaluation of solubility in distilled water (HPLC); format: physicochemical; conditions: for Solubility: distilled water, 20 mg/ml added, stirred 2 hours at room temperature (25° C.), filtered, HPLC, hydrochloride; for Solubility as compared with Compound 1 (in words): summary of Table 1
Experimental: Distilled water was added to 8-bromo-2-(1-methylpiperidin-4-ylamino)-4-(4-phenoxyphenylamino)pyrido[4,3-d]pyrimidin-5(6H)-one hydrochloride (Compound 1) represented by the above Formula 1 and the crystalline form (VI) and the crystalline form (X) obtained in the Examples such that the concentration was 20 mg/ml, which was stirred for 2 hours at room temperature (25° C.) and then filtered. Thereafter, it was diluted 200 times with acetonitrile of a concentration of 50%.

[3] = system: protein kinase; conditions: see Korean Laid-open Patent Publication No. 2014-0144709; cited from earlier work

SMILES | Hygroscopicity (%) ([1]; relative humidity 0.0%) | Hygroscopicity (%) ([1]; relative humidity 10.0%) | Hygroscopicity (%) ([1]; relative humidity 20.0%) | Hygroscopicity (%) ([1]; relative humidity 30.0%) | Hygroscopicity (%) ([1]; relative humidity 40.0%) | Hygroscopicity (%) ([1]; relative humidity 50.0%) | Hygroscopicity (%) ([1]; relative humidity 60.0%) | Hygroscopicity (%) ([1]; relative humidity 70.0%) | Hygroscopicity (%) ([1]; relative humidity 80.0%) | Hygroscopicity (%) ([1]; relative humidity 90.0%) | Solubility [2] [mg/mL] | Effect on the activity of protein kinase (in words) [3] | Hygroscopicity as compared with Compound 1 (in words) ([1]; summary of Table 2) | Solubility as compared with Compound 1 (in words) [2]
CN1CCC(Nc2nc(Nc3ccc(Oc4ccccc4)cc3)c3c(=O)[nH]cc(Br)c3n2)CC1 [Compound 1, 8-bromo-2-(1-methylpiperidin-4-ylamino)-4-(4-phenoxyphenylamino)pyrido[4,3-d]pyrimidin-5(6H)-one hydrochloride] | 0.001 | 0.655 | 1.202 | 1.695 | 2.081 | 2.457 | 2.823 | 3.215 | 3.696 | 4.584 | 0.25 | has an effect of inhibiting the activity of protein kinase |  | 
CN1CCC(Nc2nc(Nc3ccc(Oc4ccccc4)cc3)c3c(=O)[nH]cc(Br)c3n2)CC1 [Crystalline form (VI), 8-bromo-2-(1-methylpiperidin-4-ylamino)-4-(4-phenoxyphenylamino)pyrido[4,3-d]pyrimidin-5(6H)-one hydrochloride] | 0.004 | 0.707 | 0.948 | 1.132 | 1.280 | 1.419 | 1.561 | 1.726 | 1.973 | 2.452 | 19.1 |  | improved hygroscopicity | improved solubility
CN1CCC(Nc2nc(Nc3ccc(Oc4ccccc4)cc3)c3c(=O)[nH]cc(Br)c3n2)CC1 [Crystalline form (X), 8-bromo-2-(1-methylpiperidin-4-ylamino)-4-(4-phenoxyphenylamino)pyrido[4,3-d]pyrimidin-5(6H)-one hydrochloride] |  |  |  |  |  |  |  |  |  |  | 17.3 |  |  | improved solubility
